# From patent US20200165312A1, “COSMETIC COMPOSITION FOR IMPROVING SKIN CONDITIONS COMPRISING FUSION PROTEIN INCLUDING SKIN PENETRATION ENHANCING PEPTIDE” (LG HOUSEHOLD & HEALTH CARE LTD., priority 2017, published 2020)
# What was measured:
# dermal papilla cells = assay: Hair follicle stem cell proliferation: dermal papilla cells, Cell Counter Kit-8; assay type: cell-based; settings: for Proliferation (%): control = 100
# Protocol: (§1) Specifically, dermal papilla cells were inoculated onto a 96-well plate and cultured for 24 hours to obtain cultures at a density of 6,000 cells per well. The cultures were washed with PBS and cultured in a serum-free DMEM medium for one day. The cells were washed with PBS again and cultured in a serum-free DMEM medium supplemented with 1 ng/mL T-PDGFa or PDGFa for one day. The cultures were obtained therefrom and a difference between proliferated amounts of cells was quantitively analyzed using the Cell Counter Kit-8 (Dojindo). Here, dermal papilla cells cultured in a serum-free DMEM medium without T-PDGFa or PDGFa were used as a control (Table 6).
# Specifically, dermal papilla cells were inoculated onto a 96-well plate and cultured for 24 hours to obtain cultures at a density of 6,000 cells per well. The cultures were washed with PBS and cultured in a serum-free DMEM medium for one day. […] The cultures were obtained therefrom and a difference between proliferated amounts of cells was quantitively analyzed using the Cell Counter Kit-8 (Dojindo).
# as §1, with “T-IGF-1” for “T-PDGFa”, “IGF-1” for “PDGFa”, “15).” for “6).”
# as §1, with “10” for “1”, “T-KGF” for “T-PDGFa”, “KGF” for “PDGFa”, “19).” for “6).”
# as §1, with “10” for “1”, “T-Tβ4” for “T-PDGFa”, “Tβ4” for “PDGFa”, “23).” for “6).”
# [1] = Skin penetrability of growth factor fusion proteins (Franz glass cell, ELISA); assay type: in vitro ADME, porcine; settings: for Penetrated amount (%): 2 μg, 16 hours
# Protocol: (§2) Specifically, porcine skin (thickness: 0.7 mm, Medikinetics) was placed between upper and lower ends of Franz glass cell (standard diameter: 9 mm, Receiver 5 mL, Permegear), and TBS (50 mM Tris pH 7.5, 150 mM NaCl) including 1% BSA and 0.01% Tween 20 was prepared. Then, 500 μL of the TBS was applied to the upper end of the glass cell (Donor chamber), and 5 mL of the TBS was applied to the lower end of the glass cell, (Receiver chamber). Subsequently, 2 μg of PDGFa or T-PDGFa was applied to the upper end of the glass cell, followed by reaction for 16 hours. Then, a concentration of PDGFa or T-PDGFa was quantitatively analyzed using the ELISA kit (R&D Systems), and a relative amount of T-PDGFa to PDGFa was calculated as a penetrated amount (Table 7).
# Specifically, porcine skin (thickness: 0.7 mm, Medikinetics) was placed between upper and lower ends of Franz glass cell (standard diameter: 9 mm, Receiver 5 mL, Permegear), and TBS (50 mM Tris pH 7.5, 150 mM NaCl) including 1% BSA and 0.01% Tween 20 was prepared. Then, 500 μL of the TBS was applied to the upper end of the glass cell (Donor chamber), and 5 mL of the TBS was applied to the lower end of the glass cell, (Receiver chamber).
# as §2, with “IGF-1” for “PDGFa”, “T-IGF-1” for “T-PDGFa”, “16).” for “7).”
# as §2, with “KGF” for “PDGFa”, “T-KGF” for “T-PDGFa”, “20).” for “7).”
# as §2, with “Tβ4” for “PDGFa”, “T-Tβ4” for “T-PDGFa”, “24).” for “7).”
substance,measurement,setting,value
IGF-1: insulin-like growth factor-1 having an amino acid sequence of SEQ ID NO: 41,Proliferation (%),"dermal papilla cells; 1 ng/mL T-IGF-1 or IGF-1, one day",440 ± 45%
same,Penetrated amount (%),[1]; relative to IGF-1,100 ± 14%
PDGFa: platelet-derived growth factor subunit a having an amino acid sequence of SEQ ID NO: 35,Proliferation (%),"dermal papilla cells; 1 ng/mL T-PDGFa or PDGFa, one day",1030 ± 19%
same,Penetrated amount (%),[1]; relative to PDGFa,100 ± 29%
T-Tβ4: SEQ ID NO: 1 peptide C-terminal linked to N-terminal of Tβ4 via GG linker (NGSLNTHLAPILGGSDKPDMAEIEKFDKSKLKKTETQEKNPLPSKETIEQEKQAGES; Synthetic Fusion protein of T-T beta 4),Proliferation (%),"dermal papilla cells; 10 ng/mL T-Tβ4 or Tβ4, one day",220 ± 16%
same,cell proliferation effect compared with the unfused protein,dermal papilla cells; dermal papilla cells,same level
same,Penetrated amount (%),[1]; relative to Tβ4,310 ± 28%
same,skin penetrability compared with the unfused protein,"[1]; summary of Tables 7, 12, 16, 20, 24",about three times higher
Tβ4: thymosin beta 4 having an amino acid sequence of SEQ ID NO: 47,Proliferation (%),"dermal papilla cells; 10 ng/mL T-Tβ4 or Tβ4, one day",260 ± 20%
same,Penetrated amount (%),[1]; relative to Tβ4,100 ± 21%
